≈ marks a conversion by molar mass, not a printed value. Structures can show the parent of a compound that is named as a salt. Where two headings read alike, the source gives them in different places.
Experiments:
[1] = tested on: βIII tubulin expression (neurons in early stage of development); test: Differentiation, immunoenzymatic determination of βIII-tubulin expression; type: cell-based, rat; conditions: for Inhibition of differentiation, ID50: Expression of βIII tubulin (OD, 450 nm): five days exposure, mean±SD from 3 independent experiments
Description: (§1) This study was carried out according to compliance with bioethical principles. Wistar albino rats were housed under standard laboratory condition of lighting (12 h dark/12 h light), temperature (20 ± 2 °C), and relative humidity (50 – 60%) with free access to commercial feed (Murigan) and tap water. Animals (10–12 week old) were mated overnight and the appearance of a vaginal plug on the next morning was considered as day one of pregnancy. Rat embryos were collected on day 13 of gestation. Procedures were followed essentially as described in INVITTOX Protocol No. 114 [23].
(§2) Tissues were pooled from a number of embryos, washed and incubated for 20 min at 37 °C in sequence in Earle’s balanced salt solution calcium and magnesium-free (CMF, GIBCO), and 1% trypsin (GIBCO) in CMF. Then the tissues were washed in CMF and culture medium (Ham’s F-12 nutrient mixture: foetal bovine serum: L-glutamine: penicillin/streptomycin - 88:10:1:1 v/v – all materials were from GIBCO). A single cell suspension was ensured by mechanical dissociation followed by passing the suspension through sterile 10 μm nylon mesh. Viable cells density was assessed by trypan blue exclusion assay using Bürker’s haemocytometer.
(§3) High-cell-density cultures were set up carefully as a 5–10 μL drop in the centre of each well of 96-well fibronectin coated microplate (BECTON DICKINSON), so that number of cells /well was 5 × 10^4. After 2 h incubation (37°C, 5% CO2) the cells were exposed to different concentrations of tested compounds and incubated five days. […]
(§4) To indicate the target cells damaged, immunofluorescent (IF) and immunoenzymatic (IE) staining was performed. […] IF staining fluorescence was examined using a fluorescent microscope (λ = 490 nm). In IE staining, a substrate (3,3’,5,5’-tetramethylbenzidine, SIGMA) was added (100 μL/well) and reaction was evaluated for 30 min at room temperature. […] The expression level of particular proteins was determined by measuring optical density at 450 nm. […]

in vitro = type: cell-based; conditions: Wistar albino, rat
Description: as §1
as §2, with “A single cell suspension was ensured by mechanical dissociation followed by passing the suspension through sterile 10 μm nylon mesh.” left out, “haemocytometer. […]” for “haemocytometer.”
Cytotoxicity was quantified using neutral red uptake test (NRU). […] The eluted stain intensity (optical density, OD) was measured at 540 nm following at least 2 h incubation. Surviving cell number was directly related to the absorbance of the eluted stain. […]

[2] = tested on: GFAP expression (astrocytes); test: Differentiation, immunoenzymatic determination of GFAP expression; type: cell-based, rat; conditions: for Inhibition of differentiation, ID50: Expression of GFAP (OD, 450 nm): five days exposure, mean±SD from 3 independent experiments
Description: as §1, §2, §3, §4

[3] = tested on: rat embryo midbrain micromass cultures; type: cell-based
Description: (§5) The values of drug concentration, which inhibited cells viability by 50% (IC50) and reduced differentiation by 50% (ID50) when compared to unexposed control cells, were calculated according to Hill’s equation (sigmoidal model of concentration-response curve). Statistically significant differences between mean values obtained in immunoenzymatic analysis were determined based on analysis of variance (ANOVA) followed by Tukey – Kramer post-hoc test. Values of P < 0.05 were considered as statistically significant. All calculations were done using LSW Data Analysis Toolbox ver. 1.1.1. (MDL® Information Systems, Inc.) in Microsoft Excel 2000 spreadsheet and Kyplot software (Koichi Yoshioka, version 2.0 beta 4). In order to classify embryotoxic potential the mean inhibition concentrations for differentiation (ID50) of test chemical was used and the biostatistically based prediction model (PM) was applied. It is based on the linear discriminate analysis of three functions: function I: 6.65 × log (ID50)–9.49; function II: 6.16 × log (ID50)–8.29; function III: –1.31 × log (ID50)–1.42. The function providing the highest value was used to determine the class of embryotoxicity (class 1 – non-embryotoxic, class 2 – weakly embryotoxic, class 3 – strongly embryotoxic).

[4] = tested on: MAP2 expression (neurons in late stage of development); test: Differentiation, immunoenzymatic determination of MAP2 expression; type: cell-based, rat; conditions: for Inhibition of differentiation, ID50: Expression of MAP2 (OD, 450 nm): five days exposure, mean±SD from 3 independent experiments
Description: as §1, §2, §3, §4

[5] = tested on: foetuses of pregnant rats; conditions: single oral dose; cited from earlier work
mice offspring brain = conditions: three month mice offspring exposed prenatally; cited from earlier work
[6] = tested on: neurons and astrocytes of cerebellum; conditions: protein and DNA synthesis, rat embryo brain aged 15–16 days, cited from earlier work
[7] = tested on: neurons and astrocytes of ventral mesencephalon; conditions: protein and DNA synthesis, rat embryo brain aged 15–16 days, cited from earlier work
[8] = tested on: rat embryo midbrain micromass cultures (neurospheres); test: Differentiation, computerised image analysis of haematoxylin stained neurospheres; type: cell-based
Description: as §1, §2
High-cell-density cultures were set up carefully as a 5–10 μL drop in the centre of each well of 96-well fibronectin coated microplate (BECTON DICKINSON), so that number of cells /well was 5 × 10^4. After 2 h incubation (37°C, 5% CO2) the cells were exposed to different concentrations of tested compounds and incubated five days. Then dual assessment i.e. cytotoxicity and an impact of tested compound on cells differentiation (embryotoxicity) were done in the same cultures.
After removing the eluted solution, the cells were fixed in 10% formaldehyde for 20 min and stained (approximately 10 s) with Gill’s haematoxylin. Morphometric analysis was performed on digitised images of cells taken with Nikon SMZ stereoscopic microscope linked to Panasonic CCD BP-KR 222E colour camera. The number of neurospheres (containing differentiated neural cells) was counted and their total and individual area was measured using computer image analysis software (LUCIA Measurement System).
as §5, with “It is based on the linear discriminate analysis of three functions: function I: 6.65 × log (ID50)–9.49; function II: 6.16 × log (ID50)–8.29; function III: –1.31 × log (ID50)–1.42.” left out

[9] = five days exposure, computerised image analysis, mean±SD from 3 independent experiments

O=c1[nH]cc(F)c(=O)[nH]1 [5-FU, 5-fluorouracil, reference compound]
Inhibition of differentiation, ID50: Expression of βIII tubulin (OD, 450 nm) [1]: 0.14 ± 0.010 µg/mL
IC50 (in vitro): 0.15 ± 0.01 µg/mL (≈ 1.15 µM)
Inhibition of differentiation, ID50: Expression of GFAP (OD, 450 nm) [2]: 0.18 ± 0.012 µg/mL
Class of embryotoxicity (prediction model) ([3]; rat): class 3
Inhibition of differentiation, ID50: Expression of MAP2 (OD, 450 nm) [4]: 0.16 ± 0.010 µg/mL

C[C@@H]1Cc2c(Cl)cc(C(=O)N[C@@H](Cc3ccccc3)C(=O)O)c(O)c2C(=O)O1 [OTA, ochratoxin A]
Minimum effective teratogenic dose [5]: 2.75 mg/kg b.w.
IC50/ID50 ratio: βIII tubulin ([1]; NRU IC50 over ID50): 0.5
Inhibition of differentiation, ID50: Expression of βIII tubulin (OD, 450 nm) [1]: 4.84 ± 0.581 µg/mL
Tissue weight and DNA content, cerebral hemispheres (mice offspring brain): 80 % of control
Tissue weight and DNA content, remainder of the brain (mice offspring brain): 90 % of control
IC50 at 5 days (in vitro; five days exposure, mean±SD from 3 independent experiments, read-out: Cytotoxicity IC50 (Viability, Neutral Red OD, 540 nm)): 2.52 ± 0.062 µg/mL (≈ 6.24 µM)
IC50/ID50 ratio: GFAP ([2]; NRU IC50 over ID50): 0.5
Inhibition of differentiation, ID50: Expression of GFAP (OD, 450 nm) [2]: 4.87 ± 0.351 µg/mL
IC50/ID50 ratio, all endpoints ([3]; all differentiation endpoints): < 2
ID50, all endpoints of differentiation ([3]; for all endpoints): < 10 µg/mL
Class of embryotoxicity (prediction model) ([3]; function with highest value from ID50): class 3
Median inhibition concentration, astrocytes cerebellum [6]: ~27.9 ± 3.6 µg/mL
Median inhibition concentration, neurons cerebellum [6]: ~9.7 ± 2.8 µg/mL
IC50 ([6]; read-out: Median inhibition concentration, astrocytes cerebellum): ~69 µM
IC50 ([6]; read-out: Median inhibition concentration, neurons cerebellum): ~24 µM
IC50/ID50 ratio: MAP2 ([4]; NRU IC50 over ID50): 0.6
Inhibition of differentiation, ID50: Expression of MAP2 (OD, 450 nm) [4]: 3.90 ± 0.350 µg/mL
Median inhibition concentration, astrocytes ventral mesencephalon [7]: ~16.2 ± 2.15 µg/mL
Median inhibition concentration, neurons ventral mesencephalon [7]: ~5.6 ± 0.40 µg/mL
IC50 ([7]; read-out: Median inhibition concentration, astrocytes ventral mesencephalon): ~40 µM
IC50 ([7]; read-out: Median inhibition concentration, neurons ventral mesencephalon): ~14 µM
IC50/ID50 ratio: Number of neurospheres ([8]; NRU IC50 over ID50): 0.7
IC50/ID50 ratio: Particular area of neurospheres ([8]; NRU IC50 over ID50): 1.9
IC50/ID50 ratio: Total area of neurospheres ([8]; NRU IC50 over ID50): 1.1
Inhibition of differentiation, ID50: Number of neurospheres [8, 9]: 3.40 ± 1.100 µg/mL
Inhibition of differentiation, ID50: Particular area of neurospheres [8, 9]: 1.29 ± 0.923 µg/mL
Inhibition of differentiation, ID50: Total area of neurospheres [8, 9]: 2.19 ± 0.245 µg/mL
Differentiated cells after exposure to the two highest concentrations ([8]; two highest concentrations, 5 days, haematoxylin staining): no differentiated cells were observed

CC1(C)S[C@@H]2[C@H](NC(=O)Cc3ccccc3)C(=O)N2[C@H]1C(=O)O [Pen-G, Penicillin G sodium salt, reference compound]
Embryotoxicity at fixed concentration [3]: not embryotoxic
Class of embryotoxicity (prediction model) ([3]; rat): class 1
